{"source": "patent US5691338A", "about": "“1,2-dithiole-3 thiones for the treatment of reverse transcriptase-dependent viral infections” (priority 1995, dated 1997)", "key": {"[1]": {"test_system": "quinone reductase (QR) in H9 cells", "assay": "Elevation of quinone reductase (QR) in H9 cells", "type": "cell-based, human", "details": "for fold induction at 30 µM / fold induction at 60 µM / fold induction at 120 µM: Homo sapiens, read-out: Quinone reductase, treated to control value", "protocol": "(§1) Five ml of medium was added to T-25 flasks and DMSO containing tests compounds were added to a final concentration of 0.1%. Control medium contained 0.1% DMSO. After the drugs were added, 5×10^6 cells in 5 ml of medium was added to each T-25 flask. The cells were grown at 37° C. in a humidified incubator supplemented with 5% CO2 until harvested (N=3 flasks/group). At the indicated times, cells were isolated by centrifugation (500×g×10 min) and were washed three times by adding 10 ml of ice-cold DPBS, mixing, and centrifuging in a refrigerated centrifuge (500×g×10 min) to isolate the cell pellets. The cells were then lysed by the addition of 400 μl of ice-cold DPBS containing 0.5% Triton X-100 and vortexing. Supernatants were then isolated by centrifuging the lysates (5000×g×20 min). Samples were kept on ice or refrigerated until the reagents for QR or GSH spectrophotometric assays were added to the aliquoted microtiter plates. QR levels were determined by aliquoting 10 μl/well of supernatant in a 96-well plate and measuring the activity by the assay described by Prochaska and Santamaria (20) except that the final NADP^+ concentration was 200 μM (21). Samples were assayed in quadruplicate, and dicoumarol inhibitable-rates (which generally represented less than 5% of the total rate) were also measured. Spectrophotometric blanks contained 10 μl of DPBS with 0.5% Triton X-100. For the GSH assay, 300 μl of sample was placed in a centricon-10microconcentrator and centrifuged (5000×g×45 min) until enough ultrafiltrate could be collected. 50 μl/well of sample in quadruplicate was placed in a 96 well \"half-area\" plate after which 20 μl of 1 mM Ellman's reagent dissolved in DPBS was added. The yellow color (22) developed within 5 min and was scanned with a uvmax microtiter scanner (Palo Alto, Calif.) at 405 nm. Spectrophotometric blanks contained 50 μl DPBS with 0.5% Triton X-100 and 20 μl of 1 mM Ellman's reagent in DPBS. The optical densities of the specimens were calibrated to a GSH standard curve. Protein contents were determined in 3 ml cuvettes by the Bradford method (23). The protein content in the ultrafiltrates employed for GSH determinations were negligible (<0.01 mg/ml).\nWe confirmed that the induction of QR in microtiter wells mirrored our results in T-25 flasks by using the method of Prochaska and Santamaria (20). Medium (100 μl) containing 0.1% final concentration DMSO was added to all wells except columns designated to contain the highest concentration of drug or spectrophotometric blanks in duplicate sets of U-bottomed microtiter plates. 200 μl of media containing drug (final DMSO concentration=0.1%) was added to the empty column of wells and then diluted in 2-fold serial dilutions across. After the serial dilutions were performed, 100 μl of media containing 1×10^6 cells/ml was added to each well, and the plates were placed in a 37° C. incubator for 48 h. One set of plates was assayed as described (21) for QR activity, the other was assayed for cell number by the method for Alley et al. (24)."}, "[2]": {"test_system": "glutathione levels (GSH) in H9 cells", "assay": "Elevation of glutathione (GSH) levels in H9 cells", "type": "cell-based, human", "details": "for fold induction at 30 µM / fold induction at 60 µM / fold induction at 120 µM: Homo sapiens, read-out: Glutathione levels, treated to control value", "protocol": "as §1"}, "[3]": {"details": "dose- and time-dependent, H9 cells"}}, "note": "Read-outs that look alike come from different tables or passages of the source.", "data": [{"smiles": "Cc1c(-c2cnccn2)ssc1=S", "note": "[compound 11, 4-methyl-5-(2-pyrazinyl)-1,2-dithiole-3-thione]", "values": [{"measurement": "Quinone Reductase Specific Activity", "setting": "[1]; 24 h, 30 μM", "value": "62.0 ± 2.0", "unit": "nmol/min/mg"}, {"measurement": "Quinone Reductase Specific Activity", "setting": "[1]; 24 h, 60 μM", "value": "83.5 ± 1.7", "unit": "nmol/min/mg"}, {"measurement": "Quinone Reductase Specific Activity", "setting": "[1]; 24 h, 120 μM", "value": "109 ± 28", "unit": "nmol/min/mg"}, {"measurement": "Quinone Reductase Specific Activity", "setting": "[1]; 48 h, 30 μM", "value": "52.7 ± 2.9", "unit": "nmol/min/mg"}, {"measurement": "Quinone Reductase Specific Activity", "setting": "[1]; 48 h, 60 μM", "value": "68.0 ± 2.9", "unit": "nmol/min/mg"}, {"measurement": "Quinone Reductase Specific Activity", "setting": "[1]; 48 h, 120 μM", "value": "79.7 ± 0.28", "unit": "nmol/min/mg"}, {"measurement": "Quinone Reductase Specific Activity", "setting": "[1]; 72 h, 30 μM", "value": "40.4 ± 4.7", "unit": "nmol/min/mg"}, {"measurement": "Quinone Reductase Specific Activity", "setting": "[1]; 72 h, 60 μM", "value": "47.3 ± 4.6", "unit": "nmol/min/mg"}, {"measurement": "Quinone Reductase Specific Activity", "setting": "[1]; 72 h, 120 μM", "value": "75.0 ± 8.6", "unit": "nmol/min/mg"}, {"measurement": "fold induction at 30 µM", "setting": "[1]; H9, 24 h", "value": 1.1}, {"measurement": "fold induction at 60 µM", "setting": "[1]; H9, 24 h", "value": 1.48}, {"measurement": "fold induction at 120 µM", "setting": "[1]; H9, 24 h", "value": 1.93}, {"measurement": "fold induction at 30 µM", "setting": "[1]; H9, 48 h", "value": 1.52}, {"measurement": "fold induction at 60 µM", "setting": "[1]; H9, 48 h", "value": 1.96}, {"measurement": "fold induction at 120 µM", "setting": "[1]; H9, 48 h", "value": 2.28}, {"measurement": "fold induction at 30 µM", "setting": "[1]; H9, 72 h", "value": 0.86}, {"measurement": "fold induction at 60 µM", "setting": "[1]; H9, 72 h", "value": 1.01}, {"measurement": "fold induction at 120 µM", "setting": "[1]; H9, 72 h", "value": 1.6}, {"measurement": "elevation of QR", "setting": "[1]; [3]", "value": "least effective inducer of QR and GSH"}, {"measurement": "Glutathione Levels", "setting": "[2]; 24 h, 30 μM", "value": "62.0 ± 2.0", "unit": "nmol/mg"}, {"measurement": "Glutathione Levels", "setting": "[2]; 24 h, 60 μM", "value": "83.5 ± 1.7", "unit": "nmol/mg"}, {"measurement": "Glutathione Levels", "setting": "[2]; 24 h, 120 μM", "value": "109 ± 28", "unit": "nmol/mg"}, {"measurement": "Glutathione Levels", "setting": "[2]; 48 h, 30 μM", "value": "52.7 ± 2.9", "unit": "nmol/mg"}, {"measurement": "Glutathione Levels", "setting": "[2]; 48 h, 60 μM", "value": "68.0 ± 2.9", "unit": "nmol/mg"}, {"measurement": "Glutathione Levels", "setting": "[2]; 48 h, 120 μM", "value": "79.7 ± 0.28", "unit": "nmol/mg"}, {"measurement": "Glutathione Levels", "setting": "[2]; 72 h, 30 μM", "value": "40.4 ± 4.7", "unit": "nmol/mg"}, {"measurement": "Glutathione Levels", "setting": "[2]; 72 h, 60 μM", "value": "47.3 ± 4.6", "unit": "nmol/mg"}, {"measurement": "Glutathione Levels", "setting": "[2]; 72 h, 120 μM", "value": "75.0 ± 8.6", "unit": "nmol/mg"}, {"measurement": "fold induction at 30 µM", "setting": "[2]; H9, 24 h", "value": 1.1}, {"measurement": "fold induction at 60 µM", "setting": "[2]; H9, 24 h", "value": 1.48}, {"measurement": "fold induction at 120 µM", "setting": "[2]; H9, 24 h", "value": 1.93}, {"measurement": "fold induction at 30 µM", "setting": "[2]; H9, 48 h", "value": 1.52}, {"measurement": "fold induction at 60 µM", "setting": "[2]; H9, 48 h", "value": 1.96}, {"measurement": "fold induction at 120 µM", "setting": "[2]; H9, 48 h", "value": 2.28}, {"measurement": "fold induction at 30 µM", "setting": "[2]; H9, 72 h", "value": 0.86}, {"measurement": "fold induction at 60 µM", "setting": "[2]; H9, 72 h", "value": 1.01}, {"measurement": "fold induction at 120 µM", "setting": "[2]; H9, 72 h", "value": 1.6}, {"measurement": "elevation of GSH", "setting": "[2]; [3]", "value": "able to elevate both GSH and QR levels"}]}]}
